Data on 3 molecules can be found in patent US9556183B2, “Substituted pyrazolylpyrazole derivative and use of same as herbicide” (KYOYU AGRI CO., LTD., priority 2013, dated 2017).

For series [1], the system named is Monochoria vaginalis. In words: Paddy herbicidal activity test. Format: in vivo. Conditions: irrigated paddy pot, 30 days. In outline:
(§1)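 Flooded paddy-soil pots (3 cm water) sown with weeds; rice at 2.0 leaf stage transplanted when Echinochloa reached 3.5 leaf stage, then diluted wettable powder dropped into water at prescribed rate per are. After 30 days in greenhouse (mean 30° C), growth inhibition vs untreated (efficacy) or vs complete kill (phytotoxicity) scored on 11 levels.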

The test system of series [2] is Echinochloa crus-galli. The series is described as follows: Paddy herbicidal activity test. Format: in vivo. Conditions: irrigated paddy pot, treated at 3.5 leaf stage of Echinochloa crus-galli, 30 days. In outline:
as §1

Series [3] relates to Scirpus juncoides. In words: Paddy herbicidal activity test. Format: in vivo. Conditions: irrigated paddy pot, 30 days. The gist of the method: as §1
Series [4] concerns Amaranthus retroflexus. The series is described as follows: Weed foliar treatment test. The format is in vivo. Conditions: foliar spray, 3 weeks. On the procedure: (§2) Evaluation of herbicidal efficacy was carried out by comparing growth inhibition rate (%) with an untreated group, while evaluation of phytotoxicity was carried out by comparing growth inhibition rate (%) with the state of a complete eradication group, and were evaluated at 11 levels indicated below. [table] Soil was filled into a 1/6000 are pot followed by seeding with Digitaria ciliaris, Chenopodium album and Amaranthus retroflexus, covering with soil, and cultivating in a glass greenhouse at an average atmospheric temperature of 25° C. Wettable powder of Target Compound (I) shown in Table 1 prepared in compliance with the preparation examples were diluted with water to the prescribed amount of chemical and uniformly sprayed onto the weeds using 15 liters of sprayed water per are when Digitaria ciliaris had grown to the 1.0 to 2.0 leaf stage. After treating for 3 weeks in a glass greenhouse at an average atmospheric temperature of 25° C., the herbicidal efficacy thereof was investigated, Evaluation of herbicidal efficacy was carried out in the same manner as the above-mentioned Test Example 1.

The test system of series [5] is Chenopodium album. The series is described as follows: Weed foliar treatment test. The format is in vivo. Conditions: foliar spray, 3 weeks. As for the experimental part: as §2
Series [6] relates to Digitaria ciliaris. The series is described as follows: Weed foliar treatment test. Format: in vivo. Conditions: foliar spray at 1.0 to 2.0 leaf stage of Digitaria ciliaris, 3 weeks. As for the experimental part:
as §2

Series [7] concerns Amaranthus retroflexus. The series is described as follows: Farming soil treatment test. The format is in vivo. Conditions: soil surface spray prior to weed growth, 30 days. On the procedure:
(§3) Evaluation of herbicidal efficacy was carried out by comparing growth inhibition rate (%) with an untreated group, while evaluation of phytotoxicity was carried out by comparing growth inhibition rate (%) with the state of a complete eradication group, and were evaluated at 11 levels indicated below. [table] Field soil was filled into a 1/6000 are pot followed by seeding with Digitaria ciliaris, Chenopodium album and Amaranthus retroflexus and covering with soil. Wettable powder of compounds of formula (I) shown in Table 1 prepared in compliance with the preparation examples were diluted with water to the prescribed amount of chemical and uniformly sprayed onto each soil surface layer using 10 liters of sprayed water per are prior to weed growth following seeding. After treating for 30 days in a glass greenhouse at an average atmospheric temperature of 30° C., the herbicidal efficacy thereof was investigated. Evaluation of herbicidal efficacy was carried out in the same manner as the above-mentioned Test Example 1.

The subject of series [8] is Chenopodium album. The series is described as follows: Farming soil treatment test. The format is in vivo. Conditions: soil surface spray prior to weed growth, 30 days. As for the experimental part: as §3
Series [9] relates to Digitaria ciliaris. The series is described as follows: Farming soil treatment test. The format is in vivo. Conditions: soil surface spray prior to weed growth, 30 days. As for the experimental part:
as §3

Series [10] concerns Rice plants. In words: Paddy herbicidal activity test, phytotoxicity to transplanted rice. The format is in vivo. Conditions: rice transplanted at 2.0 leaf stage, 30 days. The gist of the method:
as §1

The structures appear in SMILES notation.

A word on the melting point: it is the temperature, or range, at which the solid turns liquid. Molecule `N#Cc1cnn(-c2nn3c(c2Cl)CCCC3)c1N(CC1CC1)C(=O)C(F)(F)F` [Compound 2, N-(1-(3-chloro-4,5,6,7-tetrahydropyrazolo[1,5-a]pyridin-2-yl)-4-cyanopyrazol-5-yl)-N-(cyclopropylmethyl)-2,2,2-trifluoroacetoamide] displayed a melting point of 87.3 to 101 °C. Further, the “herbicidal efficacy (growth inhibition rate level) Monochoria vaginalis” value in series [1] (1g a.i./10a) is 8 (8: 80% to less than 90%). Moreover, the “herbicidal efficacy (growth inhibition rate level) Monochoria vaginalis” value in series [1] (5g a.i./10a) was 9 (9: 90% to less than 100%). Also, the “herbicidal efficacy (growth inhibition rate level) Echinochloa crus-galli” value in series [2] (1g a.i./10a) is 9 (9: 90% to less than 100%). For the same molecule, in series [2] (5g a.i./10a), the “herbicidal efficacy (growth inhibition rate level) Echinochloa crus-galli” value is 9 (9: 90% to less than 100%). Also, the “herbicidal efficacy (growth inhibition rate level) Scirpus juncoides” value in series [3] (1g a.i./10a) is 8 (8: 80% to less than 90%). For the same molecule, in series [3] (5g a.i./10a), the “herbicidal efficacy (growth inhibition rate level) Scirpus juncoides” value is recorded as 8 (8: 80% to less than 90%). In addition, in series [4] (5g a.i./10a), the “herbicidal efficacy (growth inhibition rate level) Amaranthus retroflexus” value was 10 (10: 100%). The “herbicidal efficacy (growth inhibition rate level) Amaranthus retroflexus” value in series [4] (10g a.i./10a) was 10 (10: 100%). The “herbicidal efficacy (growth inhibition rate level) Chenopodium album” value in [5] (5g a.i./10a) is given as 10 (10: 100%). Also, in series [5] (10g a.i./10a), the “herbicidal efficacy (growth inhibition rate level) Chenopodium album” value is 10 (10: 100%). For the same molecule, the “herbicidal efficacy (growth inhibition rate level) Digitaria ciliaris” value in series [6] (5g a.i./10a) is listed as 10 (10: 100%). Further, the “herbicidal efficacy (growth inhibition rate level) Digitaria ciliaris” value in series [6] (10g a.i./10a) is reported as 10 (10: 100%). For the same molecule, in series [7] (5g a.i./10a), the “herbicidal efficacy (growth inhibition rate level) Amaranthus retroflexus” value is 10 (10: 100%). Further, in series [7] (10g a.i./10a), the “herbicidal efficacy (growth inhibition rate level) Amaranthus retroflexus” value was 10 (10: 100%). Moreover, the “herbicidal efficacy (growth inhibition rate level) Chenopodium album” value in series [8] (5g a.i./10a) is on record as 10 (10: 100%). Also, the “herbicidal efficacy (growth inhibition rate level) Chenopodium album” value in series [8] (10g a.i./10a) was 10 (10: 100%). Besides, in series [9] (5g a.i./10a), the “herbicidal efficacy (growth inhibition rate level) Digitaria ciliaris” value was 10 (10: 100%). In [9] (10g a.i./10a), the “herbicidal efficacy (growth inhibition rate level) Digitaria ciliaris” value is reported as 10 (10: 100%). In series [10] (1g a.i./10a), the “phytotoxicity (growth inhibition rate level) Rice plants” value was 0 (0 (exponent): 0% to less than 10% (growth inhibition rate)). Besides, in series [10] (5g a.i./10a), the “phytotoxicity (growth inhibition rate level) Rice plants” value is on record as 1 (1: 10% to less than 20%).
`CC(Nc1c(C#N)cnn1-c1nn2c(c1Cl)CCCC2)C1CC1` (stereo not drawn) [Compound 9, 1-(3-chloro-4,5,6,7-tetrahydropyrazolo[1,5-a]pyridin-2-yl)-5-(1-cyclopropylethylamino)pyrazole-4-carbonitrile] registered a melting point of 104 to 108 °C. Besides, in [1] (1g a.i./10a), the “herbicidal efficacy (growth inhibition rate level) Monochoria vaginalis” value is 8 (8: 80% to less than 90%). The “herbicidal efficacy (growth inhibition rate level) Monochoria vaginalis” value in series [1] (5g a.i./10a) is 9 (9: 90% to less than 100%). Besides, in [2] (1g a.i./10a), the “herbicidal efficacy (growth inhibition rate level) Echinochloa crus-galli” value is 9 (9: 90% to less than 100%). The “herbicidal efficacy (growth inhibition rate level) Echinochloa crus-galli” value in [2] (5g a.i./10a) was 9 (9: 90% to less than 100%). In [3] (1g a.i./10a), the “herbicidal efficacy (growth inhibition rate level) Scirpus juncoides” value is on record as 8 (8: 80% to less than 90%). Besides, the “herbicidal efficacy (growth inhibition rate level) Scirpus juncoides” value in series [3] (5g a.i./10a) was 8 (8: 80% to less than 90%). Moreover, in series [4] (5g a.i./10a), the “herbicidal efficacy (growth inhibition rate level) Amaranthus retroflexus” value is given as 10 (10: 100%). The “herbicidal efficacy (growth inhibition rate level) Amaranthus retroflexus” value in series [4] (10g a.i./10a) is 10 (10: 100%). Further, the “herbicidal efficacy (growth inhibition rate level) Chenopodium album” value in series [5] (5g a.i./10a) is 10 (10: 100%). The “herbicidal efficacy (growth inhibition rate level) Chenopodium album” value in [5] (10g a.i./10a) is on record as 10 (10: 100%). The “herbicidal efficacy (growth inhibition rate level) Digitaria ciliaris” value in [6] (5g a.i./10a) is given as 10 (10: 100%). In [6] (10g a.i./10a), the “herbicidal efficacy (growth inhibition rate level) Digitaria ciliaris” value is recorded as 10 (10: 100%). The “herbicidal efficacy (growth inhibition rate level) Amaranthus retroflexus” value in series [7] (5g a.i./10a) is reported as 10 (10: 100%). In addition, in series [7] (10g a.i./10a), the “herbicidal efficacy (growth inhibition rate level) Amaranthus retroflexus” value is 10 (10: 100%). Besides, the “herbicidal efficacy (growth inhibition rate level) Chenopodium album” value in series [8] (5g a.i./10a) is recorded as 10 (10: 100%). In addition, in series [8] (10g a.i./10a), the “herbicidal efficacy (growth inhibition rate level) Chenopodium album” value is reported as 10 (10: 100%). For the same molecule, in series [9] (5g a.i./10a), the “herbicidal efficacy (growth inhibition rate level) Digitaria ciliaris” value is 10 (10: 100%). For the same molecule, the “herbicidal efficacy (growth inhibition rate level) Digitaria ciliaris” value in [9] (10g a.i./10a) is on record as 10 (10: 100%). For the same molecule, the “phytotoxicity (growth inhibition rate level) Rice plants” value in series [10] (1g a.i./10a) was 0 (0 (exponent): 0% to less than 10% (growth inhibition rate)). The “phytotoxicity (growth inhibition rate level) Rice plants” value in series [10] (5g a.i./10a) is listed as 1 (1: 10% to less than 20%).
Take `N#Cc1cnn(-c2nn3c(c2Cl)CCCC3)c1NC(C1CC1)C1CC1` [Compound 10, 1-(3-chloro-4,5,6,7-tetrahydropyrazolo[1,5-a]pyridin-2-yl)-5-(dicyclopropylmethylamino)pyrazole-4-carbonitrile]: the melting point was 132 to 133 °C. Moreover, in series [1] (1g a.i./10a), the “herbicidal efficacy (growth inhibition rate level) Monochoria vaginalis” value is listed as 8 (8: 80% to less than 90%). Moreover, in series [1] (5g a.i./10a), the “herbicidal efficacy (growth inhibition rate level) Monochoria vaginalis” value is given as 9 (9: 90% to less than 100%). For the same molecule, the “herbicidal efficacy (growth inhibition rate level) Echinochloa crus-galli” value in [2] (1g a.i./10a) is 9 (9: 90% to less than 100%). Besides, the “herbicidal efficacy (growth inhibition rate level) Echinochloa crus-galli” value in [2] (5g a.i./10a) is 9 (9: 90% to less than 100%). Besides, in series [3] (1g a.i./10a), the “herbicidal efficacy (growth inhibition rate level) Scirpus juncoides” value is 8 (8: 80% to less than 90%). In addition, the “herbicidal efficacy (growth inhibition rate level) Scirpus juncoides” value in [3] (5g a.i./10a) was 9 (9: 90% to less than 100%). The “herbicidal efficacy (growth inhibition rate level) Amaranthus retroflexus” value in series [4] (5g a.i./10a) is 10 (10: 100%). Further, the “herbicidal efficacy (growth inhibition rate level) Amaranthus retroflexus” value in [4] (10g a.i./10a) is 10 (10: 100%). Also, in [5] (5g a.i./10a), the “herbicidal efficacy (growth inhibition rate level) Chenopodium album” value is listed as 10 (10: 100%). Besides, the “herbicidal efficacy (growth inhibition rate level) Chenopodium album” value in series [5] (10g a.i./10a) is on record as 10 (10: 100%). For the same molecule, in series [6] (5g a.i./10a), the “herbicidal efficacy (growth inhibition rate level) Digitaria ciliaris” value is listed as 10 (10: 100%). The “herbicidal efficacy (growth inhibition rate level) Digitaria ciliaris” value in [6] (10g a.i./10a) was 10 (10: 100%). Further, the “herbicidal efficacy (growth inhibition rate level) Amaranthus retroflexus” value in series [7] (5g a.i./10a) is recorded as 10 (10: 100%). The “herbicidal efficacy (growth inhibition rate level) Amaranthus retroflexus” value in series [7] (10g a.i./10a) is recorded as 10 (10: 100%). In series [8] (5g a.i./10a), the “herbicidal efficacy (growth inhibition rate level) Chenopodium album” value is 10 (10: 100%). Moreover, the “herbicidal efficacy (growth inhibition rate level) Chenopodium album” value in series [8] (10g a.i./10a) was 10 (10: 100%). Further, the “herbicidal efficacy (growth inhibition rate level) Digitaria ciliaris” value in series [9] (5g a.i./10a) is given as 10 (10: 100%). In series [9] (10g a.i./10a), the “herbicidal efficacy (growth inhibition rate level) Digitaria ciliaris” value is 10 (10: 100%). The “phytotoxicity (growth inhibition rate level) Rice plants” value in series [10] (1g a.i./10a) is recorded as 0 (0 (exponent): 0% to less than 10% (growth inhibition rate)). Moreover, the “phytotoxicity (growth inhibition rate level) Rice plants” value in series [10] (5g a.i./10a) was 1 (1: 10% to less than 20%).
